Values after ≈ are worked out from the molar mass of the structure shown. Like-named read-outs stand apart in the source and are kept apart here.
What was measured:
[1] = Kinetic solubility; type: physicochemical; conditions: kinetic from dmso stock
[2] = Human liver microsome (HLM) stability; type: in vitro ADME; conditions: human liver microsomes
Experimental: (§1) The stability of compounds was assessed in human plasma, human liver microsomes (HLM) and human hepatocytes (Hhep) using procedures previously published (Kong el al., ACS Med Chem Lett 12:1861-1865 (2021)). […] HLM stability T1/2 compound 1: >145 min. Hhep stability Tin compound 1: >217 min.

[3] = Caco-2 permeability; type: in vitro ADME; conditions: human
[4] = Human hepatocyte (Hhep) stability; type: in vitro ADME; conditions: human hepatocytes
Experimental: as §1

[5] = target: T1, hsCRBN-DDB1 complex (Homo sapiens, UniProt Q96SW2); test: Intact LC-MS of CRBN-DDB1 complex (covalent labeling); type: binding; conditions: for adduct formation with CRBN (intact MS): equimolar compound, room temperature
Experimental: After injecting 5 μg, proteins were desalted for four min on column with 100% A and then eluted with an HPLC gradient (0-100% B in 1 min; A=0.2 M acetic acid in water; B=0.2 M acetic acid in acetonitrile). The mass spectrometer was programmed to acquire full scan mass spectra (m/z 300-2000) in profile mode (spray voltage=4.5 kV). Mass spectra were deconvoluted using MagTran software version 1.03b2.

[6] = test system: IKZF1; test: Inhibition of IKZF1 degradation by lenalidomide, Western blot in MOLT4 cells; conditions: 1 μM compound 2 hr pre-treatment, then 1 μM lenalidomide 5 hours
[7] = target: T1, hsCRBN-DDB1 complex; test: Peptide mapping CE-MS/MS, site of covalent modification; type: binding; conditions: trypsin digest
Source text: Peptides were resolved at 500 V/cm using an HR chip with a background electrolyte consisting of 50% acetonitrile with 1% formic acid. The mass spectrometer was operated in data dependent mode and the five most abundant ions in each MS scan (m/z 300-2000, 60K resolution, 3E6 target, 100 ms max fill time) were subjected to MS/MS (15K resolution, 1E5 target, 100 ms max fill time). […] Search parameters specified fixed vinylpyridine modification of cysteine, variable methionine oxidation, and variable modification of cysteine. Modified spectra were examined and figures prepared using mzStudio software.

[8] = target: T2, PFKFB4 (Homo sapiens, UniProt Q16877); test: Mass spectrometry proteomics, relative protein abundance in MOLT4 cells (PFKFB4); type: cell-based; conditions: 1 μM compound, 5 hours
T2 construct: endogenous in cells; host or cells: MOLT4

[9] = target: T3, GSPT1 (Homo sapiens, UniProt P15170); test: Mass spectrometry proteomics, relative protein abundance in MOLT4 cells (GSPT1); type: cell-based; conditions: 1 μM compound, 5 hours
T3 construct: endogenous in cells; host or cells: MOLT4

[10] = target: T4, RNF166 (Homo sapiens, UniProt Q96A37); test: Mass spectrometry proteomics, relative protein abundance in MOLT4 cells (RNF166); type: cell-based; conditions: 1 μM compound, 5 hours
T4 construct: endogenous in cells; host or cells: MOLT4
T4 sequence (Q96A37 1-237): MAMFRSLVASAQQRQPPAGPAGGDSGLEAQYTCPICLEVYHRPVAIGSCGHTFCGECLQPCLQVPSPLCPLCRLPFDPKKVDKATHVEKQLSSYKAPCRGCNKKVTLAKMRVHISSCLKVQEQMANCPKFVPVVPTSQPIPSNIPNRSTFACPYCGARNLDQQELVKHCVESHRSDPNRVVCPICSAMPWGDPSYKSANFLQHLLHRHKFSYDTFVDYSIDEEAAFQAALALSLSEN

[11] = target: T5, NanoLuc-CRBN (Homo sapiens, UniProt Q96SW2); test: Cellular CRBN NanoBret Engagement Assay; type: cell-based
T5 construct: expressed in transfected cells; host or cells: HEK293T, lentiviral transduction, puromycin selection
Experimental: HEK293T cells were transduced with lentivirus and put under puromycin selection (5 μg/mL) for two weeks to produce a cell line stably expressing CRBN with N-terminally fused NanoLuc® luciferase (NanoLuc-CRBN). After antibiotic selection, cells were cultured in DMEM (Gibco, Life Technologies) supplemented with 10% FBS and 1 μg/mL puromycin to maintain stable NanoLuc®-CRBN expression. […] After 3-4 min, the trypsin was quenched with 5× volume DMEM media (Gibco, Life Technologies) with 10% FBS and cells were collected by centrifugation (1000 rpm, 5 min). The supernatant was removed by vacuum aspiration and the pellet was then resuspended in Opti-MEM™ without phenol red. The density of this cell suspension was determined by diluting the cells 1:1 with trypan blue, then counting using a Countess II (Thermo Fischer Scientific) and then diluted to the required volume at 2×10^5 viable cells/mL in Opti-MEM™ I (Gibco, Life Technologies). […] After plating, the assay plate was centrifuged (500×g, 5 min) and covered in aluminum foil. Compounds for testing were added to the plate using a D300e Digital Dispenser (HP) in duplicate 12-pt titrations from a 10 mM stock in DMSO, with DMSO normalized to 1% total volume. The plate was then placed in an incubator at 37° C., 5% CO2 for two hours. […] This was then added to each well (25 μL/well). The plate was read on a Pherastar FSX microplate reader with simultaneous dual emission capabilities to read 384-well plates at 450 and 520 nm. The NanoBRET™ ratio was calculated by dividing the signal at 520 nm by the signal at 450 nm for each sample. […] The NanoLuc® substrate and extracellular inhibitor were purchased as a kit from Promega Corporation and used as is from the box—Promega NanoBRET™ Nano-Glo® Substrate/Inhibitor; Promega Catalog number N2161 for 10,000 assay kit.

[12] = in vitro; conditions: human, plasma
[13] = HEK293T cells stably expressing NanoLuc-CRBN, 250 nM BODIPY-lenalidomide tracer, 2 h incubation, read-out: CRBN NanoBRET IC50

With O=C1CCC(N2Cc3ccc(OS(=O)(=O)F)cc3C2=O)C(=O)N1 (stereo not drawn) [Compound 1, 2-(2,6-dioxopiperidin-3-yl)-3-oxoisoindolin-5-yl sulfurofluoridate] the solubility kinetic [1] was 119 µM (≈ 40.7 µg/mL), the “HLM stability T1/2” value [2] was > 2.42 h and the Papp [3] was 29.5 ×10⁻⁶ cm/s. For the same compound, the “Hhep stability Tin” value [4] was > 217 min.
With O=C1CCC(N2Cc3cc(OS(=O)(=O)F)ccc3C2=O)C(=O)N1 (stereo not drawn) [Compound 2, 2-(2,6-dioxopiperidin-3-yl)-1-oxoisoindolin-5-yl sulfurofluoridate] the “adduct formation with CRBN (intact MS)” value [5] was “form an adduct with CRBN”.
For O=C1CCC(N2Cc3ccc(S(=O)(=O)F)cc3C2=O)C(=O)N1 (stereo not drawn) [Compound 3, 2-(2,6-dioxopiperidin-3-yl)-3-oxoisoindoline-5-sulfonyl fluoride], the “mass shift of CRBN (Δmass)” value ([5]; 1 eq. compound, 4 hr) was 307, the “adduct formation with CRBN (intact MS)” value [5] was “form an adduct with CRBN” and the “inhibition of IKZF1 degradation by lenalidomide” value [6] was “clearly inhibits the degradation of IKZF1 by lenalidomide”.
With O=C1CCC(N2Cc3cc(S(=O)(=O)F)ccc3C2=O)C(=O)N1 (stereo not drawn) [Compound 4, 2-(2,6-dioxopiperidin-3-yl)-1-oxoisoindoline-5-sulfonyl fluoride] the “adduct formation with CRBN (intact MS)” value [5] was “form an adduct with CRBN”, the “site of covalent labeling of CRBN” value [7] was “label His353” and the “relative fold-change abundance of PFKFB4” value [8] was “clearly downregulated”. The “relative fold-change abundance of GSPT1” value [9] was “clearly downregulated” and the “relative fold-change abundance of RNF166” value [10] was “clearly downregulated”.
For C=CS(=O)(=O)c1ccc2c(c1)C(=O)N(C1CCC(=O)NC1=O)C2 (stereo not drawn) [Compound 5, 3-(1-oxo-6-(vinylsulfonyl)isoindolin-2-yl)piperidine-2,6-dione], the IC50 [11, 13] was 12.6 µM.
With C=CS(=O)(=O)Nc1ccc2c(c1)C(=O)N(C1CCC(=O)NC1=O)C2 (stereo not drawn) [Compound 6, N-(2-(2,6-dioxopiperidin-3-yl)-3-oxoisoindolin-5-yl)ethenesulfonamide] the IC50 [11, 13] was 0.54 µM.
Nc1cc(OS(=O)(=O)F)cc2c1CN(C1CCC(=O)NC1=O)C2=O (stereo not drawn) [Compound 10, 4-amino-2-(2,6-dioxo-3-piperidyl)-6-fluorosulfonyloxy-1-oxo-isoindoline] showed an IC50 [11] of 0.89 µM.
For Cc1cnn(S(=O)(=O)c2ccc3c(c2)C(=O)N(C2CCC(=O)NC2=O)C3)c1 (stereo not drawn) [Compound 11, 3-(6-((4-methyl-1H-pyrazol-1-yl)sulfonyl)-1-oxoisoindolin-2-yl)piperidine-2,6-dione], the “Human plasma stability T1/2” value was > 4.82 h.
For O=C1CCC(N2Cc3ccc(S(=O)(=O)n4cc(F)cn4)cc3C2=O)C(=O)N1 (stereo not drawn) [Compound 12, 3-(6-((4-fluoro-1H-pyrazol-1-yl)sulfonyl)-1-oxoisoindolin-2-yl)piperidine-2,6-dione], the “Human plasma stability T1/2” value was 1.53 h.
In the case of O=C1CCC(N2Cc3ccc(S(=O)(=O)n4cc(C(F)(F)F)cn4)cc3C2=O)C(=O)N1 (stereo not drawn) [Compound 13, 3-(1-oxo-6-((4-(trifluoromethyl)-1H-pyrazol-1-yl)sulfonyl)isoindolin-2-yl)piperidine-2,6-dione], the “Human plasma stability T1/2” value is reported as 0.167 h.
In the case of O=C1CCC(N2Cc3ccc(S(=O)(=O)n4cnc(C(F)(F)F)c4)cc3C2=O)C(=O)N1 (stereo not drawn) [Compound 14, 3-(1-oxo-6-((4-(trifluoromethyl)-1H-imidazol-1-yl)sulfonyl)isoindolin-2-yl)piperidine-2,6-dione], the “Human plasma stability T1/2” value is reported as 0.108 h.
For O=C1CCC(N2Cc3ccc(S(=O)(=O)n4ccc(F)n4)cc3C2=O)C(=O)N1 (stereo not drawn) [Compound 15, 3-(6-((3-fluoro-1H-pyrazol-1-yl)sulfonyl)-1-oxoisoindolin-2-yl)piperidine-2,6-dione], the “Human plasma stability T1/2” value was 1.92 h.
For O=C1CCC(N2Cc3ccc(S(=O)(=O)n4cnc(F)c4)cc3C2=O)C(=O)N1 (stereo not drawn) [Compound 17, 3-(6-((4-fluoro-1H-imidazol-1-yl)sulfonyl)-1-oxoisoindolin-2-yl)piperidine-2,6-dione], the “Human plasma stability T1/2” value was 0.317 h.
With O=C1CCC(N2Cc3ccc(S(=O)(=O)n4ccc(C(F)(F)F)n4)cc3C2=O)C(=O)N1 (stereo not drawn) [Compound 18, 3-(1-oxo-6-((3-(trifluoromethyl)-1H-pyrazol-1-yl)sulfonyl)isoindolin-2-yl)piperidine-2,6-dione] the “Human plasma stability T1/2” value was 0.233 h.
For Cc1cn(S(=O)(=O)c2ccc3c(c2)C(=O)N(C2CCC(=O)NC2=O)C3)c(=O)[nH]c1=O (stereo not drawn) [Compound 19, 1-((2-(2,6-dioxopiperidin-3-yl)-3-oxoisoindolin-5-yl)sulfonyl)-5-methylpyrimidine-2,4(1H,3H)-dione], the “Human plasma stability T1/2” value was 3.98 h.
With Nc1cn(S(=O)(=O)c2ccc3c(c2)C(=O)N(C2CCC(=O)NC2=O)C3)c(=O)[nH]c1=O (stereo not drawn) [Compound 20, 5-amino-1-((2-(2,6-dioxopiperidin-3-yl)-3-oxoisoindolin-5-yl)sulfonyl)pyrimidine-2,4(1H,3H)-dione] the half-life [12] was > 4.82 h and the IC50 [11, 13] was 8.63 µM.
With O=C1CCC(N2Cc3ccc(S(=O)(=O)n4ccc(=O)[nH]c4=O)cc3C2=O)C(=O)N1 (stereo not drawn) [Compound 21, 1-((2-(2,6-dioxopiperidin-3-yl)-3-oxoisoindolin-5-yl)sulfonyl)pyrimidine-2,4(1H,3H)-dione] the “Human plasma stability T1/2” value was 2.72 h.
